Source: ChEMBL document CHEMBL5291721, “A preclinical secondary pharmacology resource illuminates target-adverse drug reaction associations of marketed drugs” (Nat Commun, 2023)

What was measured:
Thromboxane A2 receptor = target: T1, Thromboxane A2 receptor (Homo sapiens, UniProt P21731); type: functional, cell-based
T1 sequence (P21731 whole entry): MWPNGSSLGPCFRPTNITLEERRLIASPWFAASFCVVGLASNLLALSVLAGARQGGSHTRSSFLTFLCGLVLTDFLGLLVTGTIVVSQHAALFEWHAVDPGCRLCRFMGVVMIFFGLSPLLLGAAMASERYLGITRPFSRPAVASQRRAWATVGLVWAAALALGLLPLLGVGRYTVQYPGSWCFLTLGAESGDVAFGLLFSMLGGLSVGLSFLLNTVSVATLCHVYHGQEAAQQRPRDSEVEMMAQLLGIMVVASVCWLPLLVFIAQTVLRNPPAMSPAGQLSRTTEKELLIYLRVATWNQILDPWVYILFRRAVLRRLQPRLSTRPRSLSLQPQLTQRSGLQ

[1] = target: T2, Alpha-1A adrenergic receptor (Homo sapiens, UniProt P35348); type: functional, cell-based
T2 sequence (P35348 whole entry): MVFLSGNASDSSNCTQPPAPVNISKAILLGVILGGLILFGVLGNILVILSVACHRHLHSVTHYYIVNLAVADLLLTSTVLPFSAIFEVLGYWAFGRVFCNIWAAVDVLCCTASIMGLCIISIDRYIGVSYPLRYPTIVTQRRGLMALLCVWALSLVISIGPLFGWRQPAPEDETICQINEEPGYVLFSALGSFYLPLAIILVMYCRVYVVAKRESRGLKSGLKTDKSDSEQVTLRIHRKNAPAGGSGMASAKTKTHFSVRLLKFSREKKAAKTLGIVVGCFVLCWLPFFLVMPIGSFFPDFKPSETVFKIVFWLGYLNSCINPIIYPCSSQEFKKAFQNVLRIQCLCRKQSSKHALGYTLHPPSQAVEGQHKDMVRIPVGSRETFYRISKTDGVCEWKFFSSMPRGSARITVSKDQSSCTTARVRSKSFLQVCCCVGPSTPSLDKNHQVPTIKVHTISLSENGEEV

[2] = target: 3',5'-cyclic-AMP phosphodiesterase 4A (Homo sapiens, UniProt P27815); type: functional
[3] = target: Voltage-gated inwardly rectifying potassium channel KCNH2 (Homo sapiens, UniProt Q12809); type: functional; settings: read-out: AC50
[4] = target: cGMP-inhibited 3',5'-cyclic phosphodiesterase 3A (Homo sapiens, UniProt Q14432); type: functional
[5] = target: T3, Amine oxidase [flavin-containing] A (Homo sapiens, UniProt P21397); type: functional
T3 sequence (P21397 whole entry): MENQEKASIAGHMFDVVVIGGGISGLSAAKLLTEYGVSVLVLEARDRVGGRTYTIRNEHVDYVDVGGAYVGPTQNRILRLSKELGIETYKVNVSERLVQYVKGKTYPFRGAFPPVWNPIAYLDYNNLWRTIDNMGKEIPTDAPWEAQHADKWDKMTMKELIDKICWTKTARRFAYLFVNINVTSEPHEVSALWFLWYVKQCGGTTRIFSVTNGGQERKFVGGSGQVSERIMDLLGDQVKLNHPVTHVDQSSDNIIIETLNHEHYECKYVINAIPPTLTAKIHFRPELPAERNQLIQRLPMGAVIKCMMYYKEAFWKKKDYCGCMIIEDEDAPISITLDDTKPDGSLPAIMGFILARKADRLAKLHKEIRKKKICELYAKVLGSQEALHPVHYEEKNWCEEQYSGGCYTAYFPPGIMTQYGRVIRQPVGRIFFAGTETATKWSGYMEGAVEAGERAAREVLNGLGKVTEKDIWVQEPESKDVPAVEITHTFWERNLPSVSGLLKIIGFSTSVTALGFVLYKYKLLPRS

[6] = target: T2, Alpha-1A adrenergic receptor; type: functional, cell-based; remark: listed apart in the source
Mu-type opioid receptor = Mu-type opioid receptor (Homo sapiens, UniProt P35372)
Acetylcholinesterase = Acetylcholinesterase (Homo sapiens, UniProt P22303); type: functional
Histamine H3 receptor = Histamine H3 receptor (Homo sapiens, UniProt Q9Y5N1)
Adenosine receptor A3 = target: T4, Adenosine receptor A3 (Homo sapiens, UniProt P0DMS8)
T4 sequence (P0DMS8 whole entry): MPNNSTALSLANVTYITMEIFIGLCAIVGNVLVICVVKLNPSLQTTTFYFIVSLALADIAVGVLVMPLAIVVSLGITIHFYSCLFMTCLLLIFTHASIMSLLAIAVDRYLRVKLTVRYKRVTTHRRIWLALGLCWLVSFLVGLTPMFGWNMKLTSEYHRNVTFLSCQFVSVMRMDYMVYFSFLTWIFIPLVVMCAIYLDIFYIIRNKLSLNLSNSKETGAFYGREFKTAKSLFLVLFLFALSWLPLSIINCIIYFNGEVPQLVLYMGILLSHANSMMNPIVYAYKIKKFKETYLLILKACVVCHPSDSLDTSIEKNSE
Further: assay procedure not described here.

Sequence of 3',5'-cyclic-AMP phosphodiesterase 4A (P27815 whole entry): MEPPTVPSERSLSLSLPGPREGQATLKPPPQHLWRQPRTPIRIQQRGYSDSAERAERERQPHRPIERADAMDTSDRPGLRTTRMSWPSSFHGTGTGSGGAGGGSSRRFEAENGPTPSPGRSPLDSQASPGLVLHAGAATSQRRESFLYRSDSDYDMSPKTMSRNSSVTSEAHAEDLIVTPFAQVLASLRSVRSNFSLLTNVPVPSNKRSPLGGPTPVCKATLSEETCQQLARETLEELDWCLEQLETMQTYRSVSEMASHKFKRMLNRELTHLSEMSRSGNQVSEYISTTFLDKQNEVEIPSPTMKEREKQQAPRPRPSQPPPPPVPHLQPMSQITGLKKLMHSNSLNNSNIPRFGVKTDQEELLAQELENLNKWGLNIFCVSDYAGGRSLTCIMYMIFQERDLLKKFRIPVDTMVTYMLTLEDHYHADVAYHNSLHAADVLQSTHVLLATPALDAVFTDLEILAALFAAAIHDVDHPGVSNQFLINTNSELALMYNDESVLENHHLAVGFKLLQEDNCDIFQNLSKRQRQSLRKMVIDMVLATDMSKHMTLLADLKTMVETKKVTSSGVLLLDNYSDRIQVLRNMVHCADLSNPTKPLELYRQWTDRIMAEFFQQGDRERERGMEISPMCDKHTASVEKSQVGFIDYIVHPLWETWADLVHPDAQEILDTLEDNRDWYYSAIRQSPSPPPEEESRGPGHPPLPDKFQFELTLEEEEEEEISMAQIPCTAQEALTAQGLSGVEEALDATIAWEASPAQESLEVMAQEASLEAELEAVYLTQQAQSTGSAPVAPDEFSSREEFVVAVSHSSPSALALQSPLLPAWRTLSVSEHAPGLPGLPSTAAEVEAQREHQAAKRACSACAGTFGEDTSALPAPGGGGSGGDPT
Sequence of cGMP-inhibited 3',5'-cyclic phosphodiesterase 3A (Q14432 whole entry): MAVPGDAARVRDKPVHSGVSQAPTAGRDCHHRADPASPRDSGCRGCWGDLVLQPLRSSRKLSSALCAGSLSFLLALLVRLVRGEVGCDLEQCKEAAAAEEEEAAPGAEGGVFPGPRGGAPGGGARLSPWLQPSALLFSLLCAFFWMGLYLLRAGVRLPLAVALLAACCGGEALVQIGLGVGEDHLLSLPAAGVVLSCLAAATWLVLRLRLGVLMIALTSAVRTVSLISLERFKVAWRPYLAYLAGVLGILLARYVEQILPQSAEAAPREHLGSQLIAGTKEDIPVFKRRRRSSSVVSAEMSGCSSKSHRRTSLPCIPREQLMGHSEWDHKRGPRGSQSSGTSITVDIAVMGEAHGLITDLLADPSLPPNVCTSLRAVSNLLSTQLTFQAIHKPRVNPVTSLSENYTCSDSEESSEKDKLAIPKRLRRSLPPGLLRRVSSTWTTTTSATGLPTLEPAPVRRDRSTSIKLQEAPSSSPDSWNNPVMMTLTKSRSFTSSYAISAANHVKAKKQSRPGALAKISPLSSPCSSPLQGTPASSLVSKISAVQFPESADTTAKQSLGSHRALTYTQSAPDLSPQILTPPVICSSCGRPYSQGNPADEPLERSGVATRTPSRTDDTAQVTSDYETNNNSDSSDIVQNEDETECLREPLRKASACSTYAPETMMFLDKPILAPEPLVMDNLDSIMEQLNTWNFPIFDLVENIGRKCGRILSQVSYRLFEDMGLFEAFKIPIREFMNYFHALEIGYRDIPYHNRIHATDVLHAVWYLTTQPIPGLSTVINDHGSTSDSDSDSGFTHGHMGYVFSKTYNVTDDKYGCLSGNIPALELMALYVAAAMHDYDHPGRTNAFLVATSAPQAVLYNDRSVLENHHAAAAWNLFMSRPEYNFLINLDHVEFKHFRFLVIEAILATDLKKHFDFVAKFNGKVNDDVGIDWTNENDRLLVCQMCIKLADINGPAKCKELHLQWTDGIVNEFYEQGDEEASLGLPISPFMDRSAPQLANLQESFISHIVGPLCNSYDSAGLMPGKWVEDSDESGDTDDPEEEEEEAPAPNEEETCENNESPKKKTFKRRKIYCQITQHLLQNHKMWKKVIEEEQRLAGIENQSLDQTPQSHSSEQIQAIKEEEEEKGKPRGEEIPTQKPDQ
Sequence of Voltage-gated inwardly rectifying potassium channel KCNH2 (Q12809 whole entry): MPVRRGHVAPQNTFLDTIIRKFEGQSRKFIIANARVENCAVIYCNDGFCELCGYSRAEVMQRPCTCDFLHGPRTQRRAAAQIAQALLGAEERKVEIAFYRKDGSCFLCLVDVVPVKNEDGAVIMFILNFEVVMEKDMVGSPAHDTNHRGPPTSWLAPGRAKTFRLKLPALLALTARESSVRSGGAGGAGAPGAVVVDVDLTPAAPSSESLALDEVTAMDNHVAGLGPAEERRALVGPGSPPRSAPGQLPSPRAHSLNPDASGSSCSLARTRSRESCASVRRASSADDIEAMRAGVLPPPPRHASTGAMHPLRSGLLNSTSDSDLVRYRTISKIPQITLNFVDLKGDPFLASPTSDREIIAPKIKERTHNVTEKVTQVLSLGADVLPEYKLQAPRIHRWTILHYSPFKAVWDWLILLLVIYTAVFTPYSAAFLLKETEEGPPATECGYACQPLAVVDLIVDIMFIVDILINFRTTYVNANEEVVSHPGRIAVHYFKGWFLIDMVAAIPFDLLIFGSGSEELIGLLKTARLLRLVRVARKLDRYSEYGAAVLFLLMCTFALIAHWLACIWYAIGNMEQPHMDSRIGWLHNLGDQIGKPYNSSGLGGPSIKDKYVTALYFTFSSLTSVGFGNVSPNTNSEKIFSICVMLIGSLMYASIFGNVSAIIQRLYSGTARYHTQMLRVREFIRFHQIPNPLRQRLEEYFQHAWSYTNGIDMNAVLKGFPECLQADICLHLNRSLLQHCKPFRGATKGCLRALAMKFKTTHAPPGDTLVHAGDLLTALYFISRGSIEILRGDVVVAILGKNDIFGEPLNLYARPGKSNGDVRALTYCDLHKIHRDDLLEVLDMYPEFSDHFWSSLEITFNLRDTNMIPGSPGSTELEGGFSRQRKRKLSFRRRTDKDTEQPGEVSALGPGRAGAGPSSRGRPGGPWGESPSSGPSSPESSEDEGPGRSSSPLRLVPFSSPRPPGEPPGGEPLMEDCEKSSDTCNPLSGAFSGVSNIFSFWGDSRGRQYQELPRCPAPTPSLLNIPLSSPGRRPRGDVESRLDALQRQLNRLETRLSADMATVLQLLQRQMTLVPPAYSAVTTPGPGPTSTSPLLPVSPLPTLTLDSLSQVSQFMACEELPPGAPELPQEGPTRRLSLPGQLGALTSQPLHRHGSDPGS
Sequence of Histamine H3 receptor (Q9Y5N1 whole entry): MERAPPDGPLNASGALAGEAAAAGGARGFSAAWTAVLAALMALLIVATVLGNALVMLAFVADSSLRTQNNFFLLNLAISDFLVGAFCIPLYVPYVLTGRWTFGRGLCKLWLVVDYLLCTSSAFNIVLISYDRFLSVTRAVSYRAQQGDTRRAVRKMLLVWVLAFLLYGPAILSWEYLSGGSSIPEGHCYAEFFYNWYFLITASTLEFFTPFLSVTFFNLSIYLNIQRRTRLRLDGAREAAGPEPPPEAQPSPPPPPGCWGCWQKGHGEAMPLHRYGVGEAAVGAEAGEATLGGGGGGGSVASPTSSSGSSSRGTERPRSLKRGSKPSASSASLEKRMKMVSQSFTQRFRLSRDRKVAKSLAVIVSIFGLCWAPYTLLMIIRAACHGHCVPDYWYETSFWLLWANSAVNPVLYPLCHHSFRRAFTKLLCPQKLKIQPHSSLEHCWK
Sequence of Acetylcholinesterase (P22303 whole entry): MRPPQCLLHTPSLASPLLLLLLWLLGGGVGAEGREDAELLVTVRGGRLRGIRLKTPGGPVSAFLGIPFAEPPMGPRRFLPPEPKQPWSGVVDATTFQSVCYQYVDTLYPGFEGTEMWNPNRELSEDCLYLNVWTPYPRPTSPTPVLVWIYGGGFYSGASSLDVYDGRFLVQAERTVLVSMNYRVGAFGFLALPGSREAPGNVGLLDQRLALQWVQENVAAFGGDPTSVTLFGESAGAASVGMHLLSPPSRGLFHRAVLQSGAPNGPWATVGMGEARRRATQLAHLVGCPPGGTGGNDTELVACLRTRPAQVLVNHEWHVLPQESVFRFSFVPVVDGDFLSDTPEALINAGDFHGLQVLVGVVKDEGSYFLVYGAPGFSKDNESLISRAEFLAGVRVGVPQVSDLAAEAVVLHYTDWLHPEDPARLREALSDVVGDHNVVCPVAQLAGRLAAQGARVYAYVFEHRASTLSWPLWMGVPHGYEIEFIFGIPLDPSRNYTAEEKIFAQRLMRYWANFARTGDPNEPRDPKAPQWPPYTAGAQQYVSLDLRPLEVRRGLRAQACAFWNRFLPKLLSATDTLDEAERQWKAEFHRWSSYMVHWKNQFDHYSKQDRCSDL
Sequence of Mu-type opioid receptor (P35372 whole entry): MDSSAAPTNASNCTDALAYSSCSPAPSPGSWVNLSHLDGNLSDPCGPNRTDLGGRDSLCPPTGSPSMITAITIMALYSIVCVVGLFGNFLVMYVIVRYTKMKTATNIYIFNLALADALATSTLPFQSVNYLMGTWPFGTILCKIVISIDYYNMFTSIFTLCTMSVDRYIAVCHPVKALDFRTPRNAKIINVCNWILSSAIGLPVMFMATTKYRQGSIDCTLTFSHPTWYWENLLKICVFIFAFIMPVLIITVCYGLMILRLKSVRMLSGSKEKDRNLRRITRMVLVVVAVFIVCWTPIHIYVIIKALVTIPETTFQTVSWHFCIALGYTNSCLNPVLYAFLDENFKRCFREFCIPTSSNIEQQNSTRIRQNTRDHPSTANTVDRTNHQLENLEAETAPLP

SMILES	AC50 (Thromboxane A2 receptor)	AC50 [1]	AC50 [2]	AC50 [3]	AC50 [4]	AC50 [5]	AC50 [6]	AC50 (Mu-type opioid receptor)	AC50 (Acetylcholinesterase)	AC50 (Histamine H3 receptor)	AC50 (Adenosine receptor A3)
COc1ccc(C(=O)c2ccccc2)c(O)c1 [OXYBENZONE]	> 10 µM	> 10 µM	18.1 µM	> 30 µM	> 30 µM	> 30 µM	> 30 µM	> 30 µM	> 30 µM	> 30 µM	
CN(C)[C@@H]1C(O)=C(C(=O)NCN2CCCC2)C(=O)[C@@]2(O)C(O)=C3C(=O)c4c(O)cccc4[C@@](C)(O)[C@H]3C[C@@H]12 [ROLITETRACYCLINE]				> 30 µM							
CC(CN(C)C)CN1c2ccccc2CCc2ccccc21 (stereo unspecified) [TRIMIPRAMINE]			> 30 µM	8.9 µM	> 30 µM	> 30 µM		5.7 µM	> 30 µM	> 30 µM	> 30 µM
C[C@]12CCC(=O)C=C1C=C[C@@H]1[C@@H]2CC[C@@]2(C)[C@H]1CC[C@@]21CCC(=O)O1 [CANRENONE]				> 30 µM							
C[C@]12C=CC(=O)C=C1C(Cl)=C[C@@H]1[C@@H]2[C@@H](O)C[C@@]2(C)[C@H]1CC[C@]2(O)C(=O)CO [CLOPREDNOL]				> 30 µM							
O=C(OOC(=O)c1ccccc1)c1ccccc1 [BENZOYL PEROXIDE]	> 30 µM	> 30 µM	> 30 µM	> 30 µM	> 30 µM	> 30 µM	> 30 µM	> 30 µM	> 30 µM	> 30 µM	
COc1c(OCCCN2CCOCC2)ccc2c1N=C(NC(=O)c1cnc(N)nc1)N1CCN=C21 [COPANLISIB]	> 30 µM	> 30 µM	> 30 µM		> 30 µM	> 30 µM	> 30 µM	> 30 µM	> 30 µM	> 30 µM	
C[C@@H](O)[C@H]1C(=O)N2C(C(=O)O)=C(S[C@@H]3CN[C@H](C(=O)Nc4cccc(C(=O)O)c4)C3)[C@H](C)[C@H]12	> 30 µM		1.62 µM		> 30 µM	> 30 µM		> 30 µM	> 30 µM	> 30 µM	
CCC(=O)c1ccc2c(c1)N(CC(C)N(C)C)c1ccccc1S2 (stereo unspecified) [PROPIOMAZINE]				0.685 µM							
Cc1ccc(O)c([C@H](CCN(C(C)C)C(C)C)c2ccccc2)c1 [TOLTERODINE]		24.7 µM				> 30 µM	> 30 µM	> 30 µM	> 30 µM	> 30 µM	
CC(=O)OC1CN2CCC1CC2 (stereo unspecified) [ACECLIDINE]	> 30 µM		> 30 µM		> 30 µM	> 30 µM		> 30 µM	> 30 µM	> 30 µM	
CC(=O)O[C@]1(C(C)=O)CC[C@H]2[C@@H]3CCC4=CC(=O)CCC4=C3[C@@H](c3ccc(N(C)C)cc3)C[C@@]21C [ULIPRISTAL ACETATE]	> 30 µM	> 30 µM	> 30 µM		> 30 µM	> 30 µM	> 30 µM	22.5 µM	> 30 µM	> 30 µM	
CC(NCCC(c1ccccc1)c1ccccc1)c1ccccc1 (stereo unspecified) [FENDILINE]			> 30 µM	1.3 µM	> 30 µM	> 30 µM	25.8 µM	0.721 µM	> 30 µM	> 30 µM	26.8 µM
O=NN(CCCl)C(=O)NCCCl [CARMUSTINE]		> 30 µM				> 30 µM	> 30 µM	> 30 µM	> 30 µM	> 30 µM	
Oc1cc(Cl)ccc1Oc1ccc(Cl)cc1Cl [TRICLOSAN]				> 30 µM							
